Measured values as given in EP4711356A1, “TETRAHYDROCARBAZOLE DERIVATIVE, PHARMACEUTICAL COMPOSITION, AND USE THEREOF” (Nain Biotech (Hangzhou) Co., Ltd., priority 2023, dated 2024).

System: HeLa cells
Assay: Cell-based pharmacodynamic assay (CellTiter-Glo proliferation inhibition), HeLa
Details: human cervical cancer HeLa cells; 72 hours incubation; CellTiter-Glo luminescence; read-out: IC50 against HeLa cells
Method: Complete media such as RPMI 1640 (Gibco, A1049101), EMEM (ATCC, 30-2003), DMEM (Gibco, C11995500CP), McCoy's 5A (Gibco, 16600082), and F-12K (ATCC, 30-2004) were prepared by supplementing with varying concentrations of FBS (Biological Industries, 04-002-1A) and 1% Penicillin-Streptomycin (Gibco, 15140122) and was thoroughly mixed. Tumor cell lines including HeLa (ATCC, CCL-2; EMEM + 10% FBS), TOV-21G (Cobioer, CBP60292; 1:1 mixture of MCDB 105 and Medium 199 + 15% FBS), OVCAR-3 (ATCC, HTB-161; RPMI 1640 + 20% FBS + 0.01 mg/ml bovine insulin), SK-OV-3 (ATCC, HTB-77; McCoy's 5A + 10% FBS), A2780 (Cobioer, CBP60283; RPMI 1640 + 10% FBS), OC316 (Cobioer, CBP60620; RPMI 1640 + 10% FBS), HuH-7 (Cobioer, CBP60202; DMEM + 10% FBS), SNU-398 (ATCC, CRL-2233; RPMI 1640 + 10% FBS), NCI-H2286 (ATCC, CRL-5938; RPMI 1640 + 5% FBS), NCI-H82 (ATCC, HTB-175; RPMI 1640 + 10% FBS), A549 (ATCC, CCL-185; F-12K + 10% FBS), SK-MEL-3 (ATCC, HTB-69; McCoy's 5A + 15% FBS), PSN-1 (Cobioer, CBP61215; RPMI 1640 + 10% FBS), LoVo (ATCC, CCL-229; F-12K + 10% FBS), DLD-1 (ATCC, CCL-221; RPMI 1640 + 10% FBS), HCT-15 (ATCC, CCL-225; RPMI 1640 + 10% FBS), A498 (ATCC, HTB-44; EMEM + 10% FBS), LNCaP (ATCC, CRL-1740; RPMI 1640 + 10% FBS), SNU-1 (ATCC, CRL-5971; RPMI 1640 + 10% FBS), SCC-9 (Cobioer, CBP60428; DMEM/F12 (1:1) + 10% FBS + 0.5 mM sodium pyruvate + 400 ng/ml hydrocortisone), SU-DHL-5 (ATCC, CRL-2958; RPMI 1640 + 10% FBS), Toledo (ATCC, CRL-2631; RPMI 1640 + 10% FBS), and SJCRH30 (ATCC, CRL-2061; RPMI 1640 + 10% FBS) were thawed. Cells were passaged approximately twice, and those in good growth condition (typically passages 4-6) were selected for experiments. The medium was aspirated, and the cells were washed once with 0.25% trypsin (Invitrogen, 25200-072). The waste liquid was discarded, and 3 mL of fresh trypsin was added to the culture flask for digestion. When the cells began to detach, 9 mL of complete medium was added to neutralize the trypsin digestion, and the mixture was gently mixed. The cell suspension was transferred to a centrifuge tube using a pipette and centrifuged at 1000 rpm for 5 minutes. The supernatant was discarded, and 5 mL of medium was added to the centrifuge tube to gently resuspend the cells evenly. The cell concentration was adjusted to 1×10^4/mL-3×10^4/mL using a cell counter (Beckman Coulter, Vi-cellTM XR). The cell suspension was added to a 96-well plate (Corning, 3903) at 100 µL/well. The plate was labeled with details such as cell name, seeding density, and date, and then placed in a CO2 incubator (Thermo, Thermo 3111) overnight. Test compounds were prepared as 20 mM stock solutions in DMSO (Sigma, D4540-1L) and added to the corresponding cell wells using an HPD300 automated dispenser according to the designed layout. The plates were incubated in a 37°C, 5% CO2 incubator for 72 hours. CellTiter-Glo Buffer was thawed at room temperature. The lyophilized CellTiter-Glo substrate was equilibrated to room temperature. The CellTiter-Glo Buffer was added to the CellTiter-Glo substrate and thoroughly mixed. The cell plates were removed and equilibrated to room temperature, and 50 µL of the mixed CellTiter-Glo reagent was added to each well. The plates were protected from light and shaken for 10 minutes, followed by incubation for 10 minutes. The plates were placed in an Enspire reader (luminescence measurement time: 0.5 s) to record luminescence results. The inhibition rate was calculated using the following formula: Inhibition rate (%) = (1 - (RLU_compound - RLU_blank) / (RLU_DMSO - RLU_blank)) × 100%. Dose-response curves were plotted using XLFit to calculate IC50 values. A four-parameter model was used: [fit = (A + ((B - A) / (1 + ((C/x) ^ D)))]. The test results for HeLa cells are shown in Table 1. Table 1: IC50 values of some test compounds against human cervical cancer HeLa cells

Compound	IC50 [µM]
O=C1CCCc2c1[nH]c1cccc(C(=O)OC3CCNC3)c21 (racemic) [Compound B27]	≤ 0.5
C#CC(C)OC(=O)c1cccc2[nH]c3c(c12)CCCC3=O (racemic) [Compound B36]	≤ 0.2
CC(OC(=O)c1cccc2[nH]c3c(c12)CCCC3=O)C(=O)N(C)C (racemic) [Compound B37]	≤ 1
CC(OC(=O)c1cccc2[nH]c3c(c12)CCCC3=O)C(F)(F)F (racemic) [Compound B44]	≤ 0.2
CCCCNC1CCc2c([nH]c3cccc(C(=O)OCC)c23)C1=O (racemic) [Compound B103]	≤ 0.2
CCC#CC(C)OC(=O)c1cccc2[nH]c3c(c12)CCCC3=O (racemic) [Compound B110]	≤ 0.2
C#CCOCC(C)OC(=O)c1cccc2[nH]c3c(c12)CCCC3=O (racemic) [Compound B111]	≤ 0.2
C#CCC(C)OC(=O)c1cccc2[nH]c3c(c12)CCCC3=O (racemic) [Compound B114]	≤ 0.2
CCOC(=O)c1cccc2[nH]c3c(c12)CCC(NCCO)C3=O (racemic) [Compound B131]	≤ 0.5
CCOC(=O)c1cccc2[nH]c3c(c12)CCC(N1CCC1)C3=O (racemic) [Compound B132]	≤ 0.5
O=C1CCCc2c1[nH]c1cccc(C(=O)OC3CCC34CC4)c21 (racemic) [Compound B136]	≤ 0.2
O=C1CCCc2c1[nH]c1cccc(C(=O)OC3CCOC3)c21 (racemic) [Compound B137]	≤ 0.2
CCC(OC(=O)c1cccc2[nH]c3c(c12)CCCC3=O)C1CC1 (racemic) [Compound B138]	≤ 0.5
CC(O)CCCOC(=O)c1cccc2[nH]c3c(c12)CCCC3=O (racemic) [Compound B142]	≤ 0.2
CCOC(=O)c1cccc2c1c1c(n2C(=O)C2(C)CC2(F)F)C(=O)CCC1 (racemic) [Compound C28]	≤ 0.2
CCOC(=O)c1cccc2c1c1c(n2C(=O)C2CCCCN2C)C(=O)CCC1 (racemic) [Compound C33]	≤ 0.2
CCOC(=O)c1cccc2c1c1c(n2C(=O)C2CCOC(C)(C)C2)C(=O)CCC1 (racemic) [Compound C37]	≤ 0.2
CCOC(=O)c1cccc2c1c1c(n2C(=O)C(CO)c2ccccc2)C(=O)CCC1 (racemic) [Compound C48]	≤ 0.2
Cc1ccc2[nH]c3c(c2c1)CCCC3=NCC(O)CO (racemic) [Compound E01]	≤ 0.5
Cc1ccc2[nH]c3c(c2c1)CCCC3=NC(CO)C(C)C (racemic) [Compound E02]	≤ 0.5

Compound	IC50 [µM]
CCC(CO)N=C1CCCc2c1[nH]c1cccc(C(=O)OC)c21 (racemic) [Compound E58]	≤ 0.2
COC(=O)c1cccc2[nH]c3c(c12)CCCC3=NCC(O)CO (racemic) [Compound E59]	≤ 0.2
COC(=O)c1cccc2[nH]c3c(c12)CCCC3=NC(CO)C(C)C (racemic) [Compound E60]	≤ 0.2
Cc1ccc2[nH]c3c(c2c1)C(C)CCC3=NCCO (single isomer, unassigned) [Compound E41]	≤ 0.5
Cc1ccc2[nH]c3c(c2n1)CCCC3=O [Compound B01]	≤ 0.2
COc1ccc2[nH]c3c(c2n1)CCCC3=O [Compound B09]	≤ 0.2
COC(=O)c1cccc2[nH]c3c(c12)CCCC3=O [Compound B10]	≤ 0.2
Cc1ccc2[nH]c3c(c2c1)CCC1(CC1)C3=O [Compound B14]	≥ 5
[2H]C([2H])([2H])c1ccc2[nH]c3c(c2c1)CCCC3=O [Compound B15]	≤ 0.2
CC(C)OC(=O)c1cccc2[nH]c3c(c12)CCCC3=O [Compound B17]	≤ 0.2
COC(=O)c1ccc(F)c2[nH]c3c(c12)CCCC3=O [Compound B18]	≤ 0.5
O=C1CCCc2c1[nH]c1cccc(N3CCn4cnnc4C3)c21 [Compound B19]	≤ 0.2
CC1(C)CCN(c2cccc3[nH]c4c(c23)CCCC4=O)C1 [Compound B23]	≤ 0.2
CC(C)(O)C1CN(c2cccc3[nH]c4c(c23)CCCC4=O)C1 [Compound B24]	≤ 0.2
CCCCOC(=O)c1cccc2[nH]c3c(c12)CCCC3=O [Compound B25]	≤ 0.2
O=C1CCCc2c1[nH]c1cccc(C(=O)OC3CC3)c21 [Compound B26]	≤ 0.2
O=C1CCCc2c1[nH]c1cccc(C(=O)OC3CCOCC3)c21 [Compound B30]	≤ 0.2
O=C1CCCc2c1[nH]c1cccc(C(=O)OCCO)c21 [Compound B31]	≤ 0.2
CCC(=O)Oc1cccc2[nH]c3c(c12)CCCC3=O [Compound B32]	≤ 0.5
CC(C)C(=O)Oc1cccc2[nH]c3c(c12)CCCC3=O [Compound B33]	≤ 0.2

Compound	IC50 [µM]
O=C1CCCc2c1[nH]c1cccc(C(=O)OCc3ccccc3)c21 [Compound B34]	≤ 0.5
COCCOC(=O)c1cccc2[nH]c3c(c12)CCCC3=O [Compound B38]	≤ 0.2
O=C1CCCc2c1[nH]c1cccc(C(=O)Oc3ccccc3)c21 [Compound B39]	≤ 0.5
CC(C)(C)COC(=O)c1cccc2[nH]c3c(c12)CCCC3=O [Compound B40]	≤ 0.2
O=C1CCCc2c1[nH]c1cccc(C(=O)OCC3CC3)c21 [Compound B41]	≤ 0.2
O=C1CCCc2c1[nH]c1cccc(C(=O)OC(CF)CF)c21 [Compound B42]	≤ 0.2
O=C1CCCc2c1[nH]c1cccc(C(=O)OCc3ccc(F)cc3)c21 [Compound B43]	≤ 0.5
O=C1CCCc2c1[nH]c1cccc(C(=O)OCCC(F)(F)F)c21 [Compound B45]	≤ 0.2
O=C1CCCc2c1[nH]c1cccc(C(=O)OCC(F)(F)F)c21 [Compound B46]	≤ 0.2
O=C1CCCc2c1[nH]c1cccc(-c3ccccc3)c21 [Compound B48]	≤ 0.5
O=C1CCCc2c1[nH]c1cccc(-c3cnc4[nH]ncc4c3)c21 [Compound B50]	≤ 0.2
COC(=O)c1cccc2[nH]c3c(c12)CCC3=O [Compound B51]	≤ 0.2
CC(C)(C)OC(=O)c1cccc2[nH]c3c(c12)CCCC3=O [Compound B55]	≤ 0.2
O=C1CCCc2c1[nH]c1cccc(CO)c21 [Compound B56]	≤ 0.2
O=C1CCCc2c1[nH]c1cccc(-c3cn[nH]c3)c21 [Compound B58]	≤ 0.2
N#Cc1cccc2[nH]c3c(c12)CCCC3=O [Compound B61]	≤ 0.2
O=C1CCCc2c1[nH]c1cccc(C3=CCOCC3)c21 [Compound B62]	≤ 0.2
O=C1CCCc2c1[nH]c1cccc(N3CCOCC3)c21 [Compound B63]	≤ 0.2
CN(C)c1cccc2[nH]c3c(c12)CCCC3=O [Compound B65]	≤ 0.2
O=C1CCCc2c1[nH]c1cccc(N3CCCC3)c21 [Compound B66]	≤ 0.2
